Where “and” joins values, the source holds several entries; their conditions need not be identical. Equal values may be shown once. Toxic doses and inconclusive results are not listed.
Test system: BDF1 mice, B16 melanoma ip, median survival T/C
Test: NCI In Vivo Anticancer Drug Screen. Data for tumor model B16 Melanoma (intraperitoneal) in B6D2F1 (BDF1) mice
Conditions: endpoint: median survival time, higher = longer survival
How it was run: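 Read-out: survival or tumor size, given as treated/control ratio. Controls received vehicle only; animals bore transplantable tumors.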

[1] = dose: 25.0 mg/kg/injection, schedule: Q01DX009 (ip), vehicle: saline with Tween-80
[2] = dose: 50.0 mg/kg/injection, schedule: Q01DX009 (ip), vehicle: saline with Tween-80
[3] = dose: 100.0 mg/kg/injection, schedule: Q01DX009 (ip), vehicle: saline with Tween-80
[4] = dose: 50.0 mg/kg/injection, schedule: Q01DX009 (ip), vehicle: Klucel (hydroxypropylcellulose) (HPC)

COc1cccc2c1C(=O)c1c(O)c3c(c(O)c1C2=O)C[C@@](O)(C(C)=O)C[C@@H]3OC1CC(N(C)C)C(O)C(C)O1 (some centres undefined)
T/C (dose: 0.63 mg/kg/injection, schedule: Q01DX001 (ip), vehicle: water): 100 % of control
T/C (dose: 1.25 mg/kg/injection, schedule: Q01DX001 (ip), vehicle: water): 110 % of control and 112 % of control
T/C (dose: 2.5 mg/kg/injection, schedule: Q01DX001 (ip), vehicle: water): 104 % of control
T/C (dose: 3.46 mg/kg/injection, schedule: Q04DX003 (ip), vehicle: water): 98 % of control and 122 % of control
T/C (dose: 5.76 mg/kg/injection, schedule: Q04DX003 (ip), vehicle: water): 106 % of control and 117 % of control
T/C (dose: 7.2 mg/kg/injection, schedule: Q01DX001 (ip), vehicle: water): 104 % of control and 116 % of control
T/C (dose: 9.6 mg/kg/injection, schedule: Q04DX003 (ip), vehicle: water): 102 % of control
T/C (dose: 12.0 mg/kg/injection, schedule: Q01DX001 (ip), vehicle: water): 106 % of control and 121 % of control

Cc1ccc(NS(=O)(=O)c2ccc(Cl)cc2)cc1Cl
T/C [1]: 99 % of control
T/C [2]: 99 % of control
T/C [3]: 95 % of control

O=C1C(NC(=O)C2CCCCC2)=C(N2CC2)C(=O)C(NC(=O)C2CCCCC2)=C1N1CC1
T/C (dose: 25.0 mg/kg/injection, schedule: Q01DX009 (ip), vehicle: Klucel (hydroxypropylcellulose) (HPC)): 109 % of control
T/C [4]: 102 % of control

O=C1c2ccccc2C(Cl)=C(Cl)C1(Cl)Cl
T/C (dose: 12.5 mg/kg/injection, schedule: Q04DX003 (ip), vehicle: Klucel (hydroxypropylcellulose) (HPC)): 87 % of control
T/C (dose: 25.0 mg/kg/injection, schedule: Q04DX003 (ip), vehicle: Klucel (hydroxypropylcellulose) (HPC)): 92 % of control

O=C(Nc1ccccc1F)c1ccc(Cl)c(Cl)c1
T/C [4]: 100 % of control
T/C (dose: 100.0 mg/kg/injection, schedule: Q01DX009 (ip), vehicle: Klucel (hydroxypropylcellulose) (HPC)): 87 % of control
T/C (dose: 200.0 mg/kg/injection, schedule: Q01DX009 (ip), vehicle: Klucel (hydroxypropylcellulose) (HPC)): 90 % of control
T/C (dose: 400.0 mg/kg/injection, schedule: Q01DX009 (ip), vehicle: Klucel (hydroxypropylcellulose) (HPC)): 94 % of control

Oc1ccc(O)cc1
T/C (dose: 0.78 mg/kg/injection, schedule: Q01DX009 (ip), vehicle: saline): 92 % of control
T/C (dose: 1.56 mg/kg/injection, schedule: Q01DX009 (ip), vehicle: saline): 89 % of control
T/C (dose: 3.12 mg/kg/injection, schedule: Q01DX009 (ip), vehicle: saline): 89 % of control
T/C (dose: 25.0 mg/kg/injection, schedule: Q01DX009 (ip), vehicle: saline): 89 % of control and 117 % of control
T/C (dose: 50.0 mg/kg/injection, schedule: Q01DX009 (ip), vehicle: saline): 96 % of control and 118 % of control

CCCCn1cnc2c(SC)ncnc21
T/C [1]: 90 % of control and 115 % of control
T/C [2]: 87 % of control and 111 % of control
T/C [3]: 92 % of control and 115 % of control

NCCSC(C[N+](=O)[O-])c1ccc2c(c1)OCO2 (centres undefined)
T/C (dose: 50.0 mg/kg/injection, schedule: Q04DX003 (ip), vehicle: saline with Tween-80): 102 % of control
T/C (dose: 100.0 mg/kg/injection, schedule: Q04DX003 (ip), vehicle: saline with Tween-80): 105 % of control
T/C (dose: 200.0 mg/kg/injection, schedule: Q04DX003 (ip), vehicle: saline with Tween-80): 105 % of control

CCN(CC)CCCC(C)NCCCCNC(C)CCCN(CC)CC (centres undefined)
T/C (dose: 4.69 mg/kg/injection, schedule: Q01DX009 (ip), vehicle: alcohol): 96 % of control
T/C (dose: 6.25 mg/kg/injection, schedule: Q01DX009 (ip), vehicle: alcohol): 115 % of control
T/C (dose: 9.38 mg/kg/injection, schedule: Q01DX009 (ip), vehicle: alcohol): 104 % of control
T/C (dose: 11.0 mg/kg/injection, schedule: Q01DX009 (ip), vehicle: water): 122 % of control
T/C (dose: 12.5 mg/kg/injection, schedule: Q01DX009 (ip), vehicle: alcohol): 88 % of control
T/C (dose: 16.5 mg/kg/injection, schedule: Q01DX009 (ip), vehicle: water): 94 % of control
T/C (dose: 25.0 mg/kg/injection, schedule: Q01DX009 (ip), vehicle: water): 87 % of control and 224 % of control

O=C1C=CC(=O)N1c1ccc(Cl)cc1
T/C (dose: 1.25 mg/kg/injection, schedule: Q01DX009 (ip), vehicle: Klucel (hydroxypropylcellulose) (HPC)): 97 % of control

CCCCCCCCC(=O)CCC
T/C (dose: 100.0 mg/kg/injection, schedule: Q04DX003 (ip), vehicle: Klucel (hydroxypropylcellulose) (HPC)): 88 % of control
T/C (dose: 200.0 mg/kg/injection, schedule: Q04DX003 (ip), vehicle: Klucel (hydroxypropylcellulose) (HPC)): 90 % of control
T/C (dose: 400.0 mg/kg/injection, schedule: Q04DX003 (ip), vehicle: Klucel (hydroxypropylcellulose) (HPC)): 94 % of control

NCCc1ccc(S(=O)(=O)O)cc1[N+](=O)[O-]
T/C (dose: 50.0 mg/kg/injection, schedule: Q01DX009 (ip), vehicle: carboxymethylcellulose (CMC)): 96 % of control
T/C (dose: 100.0 mg/kg/injection, schedule: Q01DX009 (ip), vehicle: carboxymethylcellulose (CMC)): 86 % of control
T/C (dose: 200.0 mg/kg/injection, schedule: Q01DX009 (ip), vehicle: carboxymethylcellulose (CMC)): 89 % of control

Reference: PubChem BioAssay AID192 (DTP/NCI, 2004)
